In patent US20120141381A1, “Methods For Loading Contrast Agents Into A Liposome” (Duke University Office of Technology & Venture, priority 2009, published 2012):

Assay: Measurement of relaxivity of Gd-HP-DO3A-Dox-LTSL at 1.5T
Format: physicochemical
Conditions: free contrast agent
Protocol: T1 of all of the solutions was calculated from the fit of signal intensity vs. inversion time in images obtained with a T1-weighted inversion recovery sequence with variable inversion time (T1=50, 75, 100, 150, 300, 450, 600, 900, 1050 ms). Relaxivity was obtained as the slope of 1/T1 vs. Gd-HP-DO3A concentration. All imaging was performed using a clinical 1.5T MR scanner (Philips Medical Systems, Best, The Netherlands).

CC(O)CN1CCN(CC(=O)[O-])CCN(CC(=O)[O-])CCN(CC(=O)[O-])CC1.[Gd+3] (stereo not shown) [ProHance®, gadolinium complex of 10-(2-hydroxy-propyl)-1,4,7,10-tetraazacyclododecane-1,4,7-triacetic acid]
relaxivity (slope of 1/T1 vs concentration): 4.05 ± 0.14 mM⁻¹ s⁻¹
